Calls of active or inactive are those of the source. No cut-off for these calls is given here.
How the values were obtained:
[1] = target: T1, Protein cereblon/Cyclic GMP-AMP synthase (Mus musculus) (UniProt Q8C6L5+Q8C7D2); assay: (§1) In vivo inhibition of cGAS signaling pathway in DSS-induced ulcerative colitis C57BL/6 mouse model assessed as reduction in cGAS protein level in colon at 200 mg/kg/day, po preadministered with DSS for 7 days followed by replacement with ultrapure water for 3 days with subsequent compound administration starting from day 4 to 10 and measured on day 11 by Western blot analysis; format: functional, organism-based; conditions: time 8.0 day
T1 sequence (Q8C6L5 whole entry, looked up): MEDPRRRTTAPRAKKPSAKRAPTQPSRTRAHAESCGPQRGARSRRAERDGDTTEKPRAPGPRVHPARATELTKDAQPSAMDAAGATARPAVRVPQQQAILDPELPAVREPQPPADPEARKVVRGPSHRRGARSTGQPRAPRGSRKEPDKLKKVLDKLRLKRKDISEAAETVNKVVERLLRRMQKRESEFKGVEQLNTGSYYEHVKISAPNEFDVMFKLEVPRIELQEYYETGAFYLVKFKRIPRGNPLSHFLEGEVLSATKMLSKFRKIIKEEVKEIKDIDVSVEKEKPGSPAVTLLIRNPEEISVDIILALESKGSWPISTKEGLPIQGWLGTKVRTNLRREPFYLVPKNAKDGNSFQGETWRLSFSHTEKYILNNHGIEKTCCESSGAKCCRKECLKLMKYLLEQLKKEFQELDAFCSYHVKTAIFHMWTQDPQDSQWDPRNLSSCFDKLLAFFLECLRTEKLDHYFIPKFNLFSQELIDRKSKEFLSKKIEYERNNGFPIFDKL
T1 sequence (Q8C7D2 whole entry, looked up): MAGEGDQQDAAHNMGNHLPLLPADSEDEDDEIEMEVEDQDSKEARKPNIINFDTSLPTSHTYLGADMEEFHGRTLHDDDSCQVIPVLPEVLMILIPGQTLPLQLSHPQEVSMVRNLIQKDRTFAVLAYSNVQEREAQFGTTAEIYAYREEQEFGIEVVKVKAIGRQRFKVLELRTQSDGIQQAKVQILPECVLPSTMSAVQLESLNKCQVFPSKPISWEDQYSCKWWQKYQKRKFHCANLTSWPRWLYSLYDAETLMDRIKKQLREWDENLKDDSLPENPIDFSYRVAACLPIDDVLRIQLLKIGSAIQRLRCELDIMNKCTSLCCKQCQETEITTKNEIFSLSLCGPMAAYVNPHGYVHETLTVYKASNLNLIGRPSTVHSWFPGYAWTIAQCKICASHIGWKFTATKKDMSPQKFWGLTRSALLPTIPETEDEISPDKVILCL

Mus musculus [2] = assay: as §1, with “Anti-inflammatory activity” for “In vivo inhibition of cGAS signaling pathway”, “NET generation by measuring reduction in citH3” for “cGAS protein”; format: functional, organism-based; conditions: time 8.0 day
[3] = Inhibition of dsDNA-induced cGAS signaling pathway in human THP1-Lucia ISG cells preincubated with compound for 24 hrs followed by HT-DNA addition and measured after 24 hrs by QUANTI-Luc luciferase reagent based assay; format: cell-based
[4] = Inhibition of dsDNA-induced cGAS signaling pathway in mouse RAW-Lucia ISG cells preincubated with compound for 24 hrs followed by HT-DNA addition and measured after 24 hrs by QUANTI-Luc luciferase reagent based assay; format: cell-based
THP-1 [5] = assay: Induction of cGAS degradation in human THP-1 cells at 10 uM preincubated with compound for 40 hrs followed by HT-DNA stimulation and measured after 8 hrs by Western blot analysis relative to control; format: cell-based; conditions: time 48.0 hrs
[6] = target: Protein cereblon/Cyclic GMP-AMP synthase (Homo sapiens, UniProt Q96SW2+Q8N884); assay: PROTAC activity at CRBN/cGAS in human THP-1 cells assessed as induction of cGAS degradation at 10 uM incubated for 48 hrs by Western blot analysis; format: cell-based
Protein cereblon/Cyclic GMP-AMP synthase, sequence (Q8N884 whole entry, looked up): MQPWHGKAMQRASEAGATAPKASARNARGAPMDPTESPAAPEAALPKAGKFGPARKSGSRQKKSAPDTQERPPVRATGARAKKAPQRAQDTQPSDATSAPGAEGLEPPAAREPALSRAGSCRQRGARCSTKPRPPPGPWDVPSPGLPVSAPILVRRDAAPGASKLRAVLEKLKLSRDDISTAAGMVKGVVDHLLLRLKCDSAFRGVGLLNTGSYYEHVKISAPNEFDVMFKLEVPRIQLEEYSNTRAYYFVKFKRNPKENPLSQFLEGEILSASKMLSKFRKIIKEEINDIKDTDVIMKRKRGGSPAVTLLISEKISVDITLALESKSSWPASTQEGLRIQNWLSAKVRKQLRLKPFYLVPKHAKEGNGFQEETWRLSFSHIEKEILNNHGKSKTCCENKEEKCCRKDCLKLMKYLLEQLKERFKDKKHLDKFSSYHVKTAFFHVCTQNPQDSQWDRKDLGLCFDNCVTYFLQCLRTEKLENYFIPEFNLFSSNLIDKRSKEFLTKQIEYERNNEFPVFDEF
Protein cereblon/Cyclic GMP-AMP synthase, sequence (Q96SW2 whole entry, looked up): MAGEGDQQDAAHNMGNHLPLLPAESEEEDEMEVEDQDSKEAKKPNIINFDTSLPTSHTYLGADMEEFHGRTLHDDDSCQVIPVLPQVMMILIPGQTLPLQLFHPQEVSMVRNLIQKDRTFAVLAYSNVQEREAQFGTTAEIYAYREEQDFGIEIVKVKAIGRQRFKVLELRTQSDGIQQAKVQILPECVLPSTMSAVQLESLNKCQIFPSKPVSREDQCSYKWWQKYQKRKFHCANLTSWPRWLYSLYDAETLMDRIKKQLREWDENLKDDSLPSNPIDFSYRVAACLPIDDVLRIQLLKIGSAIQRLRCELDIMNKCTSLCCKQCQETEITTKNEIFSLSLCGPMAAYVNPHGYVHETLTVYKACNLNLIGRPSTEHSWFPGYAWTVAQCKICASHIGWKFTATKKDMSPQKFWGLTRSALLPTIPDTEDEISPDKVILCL

THP-1 [7] = assay: Cytotoxicity against human THP-1 cells assessed as reduction in cell viability at >30 uM incubated for 48 hrs by CCK8 assay; format: toxicity, cell-based; conditions: thp-1, 48 h
[8] = target: T1, Protein cereblon/Cyclic GMP-AMP synthase (Mus musculus); assay: as §1, with “at 50” for “at 200”, “mg/kg/day, ip” for “mg/kg/day, po”; format: functional, organism-based; conditions: time 8.0 day
Mus musculus [9] = assay: Anti-inflammatory activity in DSS-induced ulcerative colitis C57BL/6 mouse model assessed as reduction in NET generation by measuring reduction in citH3 level in colon at 50 mg/kg/day, ip preadministered with DSS for 7 days followed by replacement with ultrapure water for 3 days with subsequent compound administration starting from day 4 to 10 and measured on day 11 by Western blot analysis; format: functional, organism-based; conditions: time 8.0 day

Row | Compound | inhibition [1] | Activity (Mus musculus [2]) | IC50 [3] [µM] | IC50 [4] [µM] | Activity (THP-1 [5]) [%] | Activity [6] | Activity (THP-1 [7]) | inhibition [8] | Activity (Mus musculus [9])
1 | Nc1ccc(O)c(C(=O)O)c1 | Active; Minor Changes Observed | Active | – | – | – | – | – | – | –
2 | Cn1ccc(-c2cc(Cl)c(Cl)c3[nH]c4c(c23)CN(C(=O)CO)CC4)n1 | – | – | 4.1 | 13.1 | 8.3 | inactive | Toxic | Active; Minor Changes Observed | Active
